Experimental data reported in ChEMBL document CHEMBL4321885, “Biomimetic Macrocyclic Inhibitors of Human Cathepsin D: Structure-Activity Relationship and Binding Mode Analysis” (J Med Chem, 2020).
Active and inactive are the calls of the source. No cut-off for these calls is given here. Non-standard residues stand in square brackets, D forms with d. Residues, ends and D or L forms follow the SMILES beside them. *: point of attachment. Sta = CC(C)C[C@H](N)[C@@H](O)CC(=O)O; Isovaleryl = CC(C)CC(=O)*

How the values were obtained:
[1] = molecular target: Beta-secretase 1 (Homo sapiens) (UniProt P56817); test: Inhibition of recombinant human C-terminal 10His-tagged BACE1 expressed in mouse NS0 cells at 50 nM using Mca-Ser-Glu-Val-Asn-Leu-Asp-Ala-Glu-Phe-Arg-Lys(Dnp)-Arg-Arg as substrate preincubated for 10 mins followed by substrate addition and measured by FRET assay
Ixodes ricinus = test: Inhibition of Ixodes ricinus CatD expressed in Escherichia coli BL21(DE3) at 50 nM using Abz-Lys-Pro-Ala-Glu-Phe-Nph-Ala-Leu as substrate preincubated for 10 mins followed by substrate addition and measured by FRET assay
Renin (Homo sapiens) [2] = molecular target: T1, Renin (Homo sapiens) (UniProt P00797); test: Inhibition of recombinant human N-terminal FLAG-tagged renin (67 to 406 residues) expressed in HEK cells at 50 nM using Arg-Glu(EDANS)-Ile-His-Pro-Phe-His-Leu-Val-Ile-His-Thr-Lys(Dabcyl)-Arg as substrate preincubated for 10 mins followed by substrate addition and measured by FRET assay
T1 sequence (whole entry): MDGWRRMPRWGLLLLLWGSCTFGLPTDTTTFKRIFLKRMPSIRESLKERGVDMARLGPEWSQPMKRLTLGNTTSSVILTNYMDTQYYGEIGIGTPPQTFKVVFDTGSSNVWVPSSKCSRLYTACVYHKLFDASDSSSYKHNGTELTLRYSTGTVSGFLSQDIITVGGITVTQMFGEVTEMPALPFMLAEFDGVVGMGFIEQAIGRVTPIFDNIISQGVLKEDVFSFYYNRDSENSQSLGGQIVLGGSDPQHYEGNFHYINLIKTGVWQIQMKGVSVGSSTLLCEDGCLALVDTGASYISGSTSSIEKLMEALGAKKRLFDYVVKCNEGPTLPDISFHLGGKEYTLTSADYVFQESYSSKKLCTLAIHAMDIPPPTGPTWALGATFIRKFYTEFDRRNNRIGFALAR

Renin (Homo sapiens) [3] = molecular target: T1, Renin (Homo sapiens); test: Inhibition of recombinant human N-terminal FLAG-tagged renin (67 to 406 residues) expressed in HEK cells at 5 uM using Arg-Glu(EDANS)-Ile-His-Pro-Phe-His-Leu-Val-Ile-His-Thr-Lys(Dabcyl)-Arg as substrate preincubated for 10 mins followed by substrate addition and measured by FRET assay
[4] = molecular target: Protease (Human immunodeficiency virus 1) (UniProt Q9YQ12); test: Inhibition of HIV1 protease at 50 nM using Abz-Tyr-Ile-Nle-Nph-Gln-Arg as substrate preincubated for 10 mins followed by substrate addition and measured by FRET assay
[5] = molecular target: Saccharopepsin (Saccharomyces cerevisiae S288c) (UniProt P07267); test: Inhibition of Baker's yeast proteinase A at 50 nM using Abz-Lys-Pro-Ala-Glu-Phe-Nph-Ala-Leu as substrate preincubated for 10 mins followed by substrate addition and measured by FRET assay
[6] = molecular target: Beta-secretase 1 (Homo sapiens) (UniProt P56817); test: Inhibition of recombinant human C-terminal 10His-tagged BACE1 expressed in mouse NS0 cells at 5 uM using Mca-Ser-Glu-Val-Asn-Leu-Asp-Ala-Glu-Phe-Arg-Lys(Dnp)-Arg-Arg as substrate preincubated for 10 mins followed by substrate addition and measured by FRET assay
Cathepsin D = Cathepsin D (Homo sapiens, UniProt P07339); test: Inhibition of human placenta CatD using Abz-Lys-Pro-Ala-Glu-Phe-Nph-Ala-Leu as substrate preincubated for 10 mins followed by substrate addition and measured by FRET assay
[7] = molecular target: Protease (Human immunodeficiency virus 1) (UniProt Q9YQ12); test: Inhibition of HIV1 protease at 5 uM using Abz-Tyr-Ile-Nle-Nph-Gln-Arg as substrate preincubated for 10 mins followed by substrate addition and measured by FRET assay

Chain of Cathepsin D (P07339 65-162 limits assumed): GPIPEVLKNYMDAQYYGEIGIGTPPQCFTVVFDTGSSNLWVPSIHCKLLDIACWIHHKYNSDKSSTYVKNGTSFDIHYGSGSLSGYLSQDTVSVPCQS
Chain of Cathepsin D (P07339 169-412 limits assumed): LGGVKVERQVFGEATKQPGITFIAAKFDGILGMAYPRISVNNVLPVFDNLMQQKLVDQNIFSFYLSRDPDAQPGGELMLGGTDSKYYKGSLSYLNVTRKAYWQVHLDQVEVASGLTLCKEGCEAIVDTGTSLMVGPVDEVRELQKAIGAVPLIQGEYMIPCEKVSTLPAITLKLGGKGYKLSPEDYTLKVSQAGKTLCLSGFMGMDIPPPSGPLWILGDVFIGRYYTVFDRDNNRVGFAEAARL
Chain of Saccharopepsin (Saccharomyces cerevisiae S288c) (P07267 whole entry): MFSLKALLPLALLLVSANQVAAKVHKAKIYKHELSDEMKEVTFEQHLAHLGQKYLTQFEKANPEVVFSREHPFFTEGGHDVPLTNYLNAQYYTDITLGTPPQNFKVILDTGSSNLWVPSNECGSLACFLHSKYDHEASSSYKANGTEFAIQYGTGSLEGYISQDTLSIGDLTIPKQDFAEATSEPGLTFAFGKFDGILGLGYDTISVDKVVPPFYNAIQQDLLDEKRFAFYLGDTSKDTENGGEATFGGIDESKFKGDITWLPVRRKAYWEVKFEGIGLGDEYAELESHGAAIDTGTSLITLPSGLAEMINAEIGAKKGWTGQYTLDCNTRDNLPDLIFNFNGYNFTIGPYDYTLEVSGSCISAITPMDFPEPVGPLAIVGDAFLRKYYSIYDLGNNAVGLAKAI
Chain of Beta-secretase 1 (Homo sapiens) (P56817 whole entry): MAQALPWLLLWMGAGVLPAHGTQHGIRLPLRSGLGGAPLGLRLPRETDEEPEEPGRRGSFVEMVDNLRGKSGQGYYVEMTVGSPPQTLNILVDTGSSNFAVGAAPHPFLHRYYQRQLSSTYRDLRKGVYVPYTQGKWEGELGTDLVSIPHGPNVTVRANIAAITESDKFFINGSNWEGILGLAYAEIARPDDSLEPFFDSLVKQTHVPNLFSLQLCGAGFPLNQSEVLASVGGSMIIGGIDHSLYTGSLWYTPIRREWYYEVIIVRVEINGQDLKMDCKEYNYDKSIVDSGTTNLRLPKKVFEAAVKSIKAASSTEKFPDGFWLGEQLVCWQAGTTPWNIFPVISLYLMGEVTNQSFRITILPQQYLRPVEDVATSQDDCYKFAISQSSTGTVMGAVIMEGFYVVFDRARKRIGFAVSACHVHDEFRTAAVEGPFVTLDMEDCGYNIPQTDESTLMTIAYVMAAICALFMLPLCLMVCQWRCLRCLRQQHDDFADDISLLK
Chain of Protease (Human immunodeficiency virus 1) (Q9YQ12 as listed by the source): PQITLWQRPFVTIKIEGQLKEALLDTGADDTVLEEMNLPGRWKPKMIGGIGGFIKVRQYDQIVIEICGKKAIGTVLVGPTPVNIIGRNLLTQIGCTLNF

Row | SMILES | inhibition [1] | inhibition (Ixodes ricinus) | inhibition (Renin (Homo sapiens) [2]) | inhibition (Renin (Homo sapiens) [3]) | inhibition [4] | inhibition [5] | inhibition [6] | IC50 (Cathepsin D) [nM] | inhibition [7]
1 | CC(C)[C@@H]1NC(=O)C[C@H](O)[C@H](CS)NC(=O)CCCCCCCCCCCNC1=O | inactive | Active | inactive | Active | inactive | Active | Active | 340 | Active
2 | CC(C)[C@@H]1NC(=O)C[C@H](O)[C@H](Cc2ccccc2)NC(=O)CCCCCCCCCCCNC1=O | inactive | Active | inactive | Active | inactive | Active | Active | 5.8 | Active
3 | C[C@@H](OCc1ccccc1)[C@@H]1NC(=O)C[C@H](O)[C@H](Cc2ccccc2)NC(=O)CCCCCCCCCCCNC1=O | inactive | Active | inactive | Active | inactive | Active | Active | 560 | Active
4 | CC(C)[C@@H]1NC(=O)C[C@H](O)[C@H](Cc2ccccc2)NC(=O)CCCCCCCCCCNC1=O | inactive | Active | inactive | Active | inactive | Active | Active | 40 | Active
5 | CC(C)[C@@H]1NC(=O)C[C@H](O)[C@H](Cc2ccc(F)cc2)NC(=O)CCCCCCCCCCCNC1=O | inactive | Active | inactive | Active | inactive | Active | Active | 4.7 | Active
6 | CC(C)CC(=O)N[C@@H](CC(C)C)[C@@H](O)CC(=O)N[C@@H](C)C(=O)N[C@@H](CC(C)C)[C@@H](O)CC(=O)O | – | – | – | – | – | – | – | 2500 | –
7 | CC(C)[C@@H]1NC(=O)NC[C@H](O)[C@H](Cc2ccccc2)NC(=O)CCCCCCCCCCCNC1=O | inactive | Active | inactive | Active | inactive | Active | Active | 21 | Active
8 | O=C1C[C@H](O)[C@H](Cc2ccccc2)NC(=O)CCCCCCCCCCCNC(=O)[C@H](C2CCCCC2)N1 | inactive | Active | inactive | Active | inactive | Active | Active | 8.2 | Active
9 | C[C@@H]1NC(=O)C[C@H](O)[C@H](Cc2ccccc2)NC(=O)CCCCCCCCCCCNC1=O | inactive | Active | inactive | Active | inactive | Active | Active | 68 | Active
10 | CC(C)[C@@H]1NC(=O)C[C@H](O)[C@H](Cc2ccccc2)NC(=O)CCCCCCCCCCCCNC1=O | inactive | Active | inactive | Active | inactive | Active | Active | 3.5 | Active
11 | CC(C)CC(=O)N[C@@H](CC(C)C)[C@@H](O)CC(=O)N[C@@H](C)C(=O)O | – | – | – | – | – | – | – | > 200000 | –
12 | CC(C)[C@@H]1NC(=O)C[C@H](O)[C@H](Cc2ccc(F)c(F)c2)NC(=O)CCCCCCCCCCCNC1=O | inactive | Active | inactive | Active | inactive | Active | Active | 3.1 | Active
13 | CC(C)[C@@H]1NC(=O)C[C@H](O)[C@H](Cc2ccc(O)cc2)NC(=O)CCCCCCCCCCCNC1=O | inactive | Active | inactive | Active | inactive | Active | Active | 39 | Active
14 | CC(C)[C@@H]1NC(=O)C[C@H](O)[C@H](Cc2ccccc2)NC(=O)CCOCCOCCOCCNC1=O | inactive | Active | inactive | Active | inactive | Active | Active | 850 | Active
15 | C[C@@H](O)[C@@H]1NC(=O)C[C@H](O)[C@H](Cc2ccccc2)NC(=O)CCCCCCCCCCCNC1=O | inactive | Active | inactive | Active | inactive | Active | Active | 500 | Active
16 | CC(C)[C@@H]1NC(=O)C[C@H](O)[C@H](Cc2ccccc2)NC(=O)CCCCCCCCCCCCCCNC1=O | inactive | Active | inactive | Active | inactive | Active | Active | 32 | Active
17 | CC(C)[C@@H]1NC(=O)C[C@H](O)[C@H](Cc2ccc(OCc3ccccc3)cc2)NC(=O)CCCCCCCCCCCNC1=O | inactive | Active | inactive | Active | inactive | Active | Active | 55 | Active
18 | CC(C)[C@@H]1NC(=O)C[C@H](O)[C@H](Cc2cscn2)NC(=O)CCCCCCCCCCCNC1=O | inactive | Active | inactive | Active | inactive | Active | Active | 600 | Active
19 | CC(C)[C@@H]1NC(=O)C[C@H](O)[C@H](Cc2ccc3ccccc3c2)NC(=O)CCCCCCCCCCCNC1=O | inactive | Active | inactive | Active | inactive | Active | Active | 0.6 | Active
20 | CC(C)CC(=O)N[C@H](C(=O)N[C@H](C(=O)N[C@@H](CC(C)C)[C@@H](O)CC(=O)N[C@@H](C)C(=O)O)C(C)C)C(C)C (Isovaleryl-VV[Sta]A-OH) | – | – | – | – | – | – | – | 40 | –
21 | CC(C)[C@@H]1NC(=O)C[C@H](O)[C@H](CSCc2ccccc2)NC(=O)CCCCCCCCCCCNC1=O | inactive | Active | inactive | Active | inactive | Active | Active | 20 | Active
22 | CC(C)CC(=O)N[C@H](C(=O)N[C@H](C(=O)N[C@@H](CC(C)C)[C@@H](O)CC(=O)O)C(C)C)C(C)C (Isovaleryl-Val-Val-[Sta]-OH) | – | – | – | – | – | – | – | 500 | –
